Assays:
Assay type in all cases: cell-based
C. albicans ATCC 9021 = experiment: Fungicidal activity: checkerboard combined with Afnor membrane filtration, 5 min contact (Example 2, Table 3); details: Candida albicans, ATCC9021, 5 min, pH 9, read-out: Mg; for log reduction at 2 %: product alone at 2 %
Description: (§1) La technique utilisée est originale car elle utilise à la fois le principe de la technique de l'échiquer et celui de la norme Afnor par filtration sur membrane relative à la fongicidie avec un temps de contact germe-molécules de 5 minutes.
(§2) C'est une macro-méthode qui a donc été réalisée ici avec validations à chaque essai du témoin solvant des molécules (Tween® 20 %, éthanol 17 % dans l'eau distillée).
(§3) L'association de l'octopirox avec le crotamiton a été testé selon la méthodologie de l'exemple 1 sur une souche Pityrosporium ovale éco-R et C. albicans ATCC 9021.
(§4) Le même solvant a été utilisé et validé à chaque essai comme le spécifie la norme Afnor.
Ces Résultats ont été confirmés sur une levure de référence Afnor (C.albicans ATCC 9021). Les résultats sont reportés dans le tableau 3.
(§5) Les essais de l'exemple 2 ont été réalisés avec un pH plus basique = 9.

[1] = tested on: Pityrosporium ovale sauvages dont une éco-R; experiment: Fungicidal activity: checkerboard combined with Afnor membrane filtration, 5 min contact (Example 1); details: pH about 8, read-out: Mg : moyenne géométrique du Log 10 de la réduction du nombre de germes; for log reduction at 2 %: product alone at 2 % (m/v); for log reduction at 4 %: product alone at 4 % (m/v)
Description: CMF définissant la concentration minimale de fongicide pour laquelle on obtient une diminution de 4.Log 10 de l'inoculum ensemencé en 5 minutes de contact à 20°C.
Des souches de Malassezia furfur (Pityrosporum ovale) ont été testées pour leur sensibilité vis-à-vis des principes actifs seuls ou bien en association selon l'invention.
Les souches sont issues du Laboratoire de Parasitologie du Centre Hospitalier Régional de Rangueil de TOULOUSE (France) et une souche est éconazole résistante (éco-R). Elles ont été cultivées lors des essais sur milieu Dixon solide.
as §1, §2
Ce solvant inhibe légèrement l'activité de la ciclopiroxolamine, et il faut donc s'attendre à de meilleurs résultats en pratique. Les autres témoins sont celui de la vigueur de la souche et de l'efficacité des produits seuls, soit : - ciclopiroxolamine 4 % - crotamiton 4 %
Le tableau 1 représente les moyennes géométiques de la réduction logarithmique sur deux Pityrosporium ovale sauvages dont une éco-R, le nombre d'essais ainsi que le pourcentage d'efficacité.
La norme Afnor considère qu'il y a fongicidie pour une réduction de 4 Log 10 de l'inoculum après 15 minutes de contact.
Le pH de l'ensemble de ces études se situe autour de 8.

P. ovale éco-R = experiment: Fungicidal activity: checkerboard combined with Afnor membrane filtration, 5 min contact (Example 2, Table 2); details: Pityrosporium ovale, pH 9, read-out: Mg; for log reduction at 2 %: product alone at 2 %
Description: as §1, §2, §3
Le tableau 2 représente les résultats obtenus sur P. ovale éco-R après cinq minutes de contact pour l'association : • crotamiton 1 % - octopirox 1 % pour lequel nous avons 100 % d'efficacité • alors que les produits seuls à double ou quadruple concentrations sont moins actifs.
as §4, §5

Compound | log reduction at 2 % (C. albicans ATCC 9021) | log reduction at 4 % (C. albicans ATCC 9021; product alone at 4 %) | log reduction at 1 % ([1]; product alone at 1 % (m/v)) | log reduction at 2 % [1] | log reduction at 4 % [1] | log reduction at 2 % (P. ovale éco-R) | log reduction at 4 % (P. ovale éco-R; product alone at 4 %) | log reduction at 1 % (C. albicans ATCC 9021; product alone at 1 %)
CC=CC(=O)N(CC)c1ccccc1C [Crota, N-éthyl-N-O-tolylcrotonamide] | 2.43 | 4.95 | 0.03 | 0.77 | 3.77 | 1.59 | 3.26 | –
Cc1cc(CC(C)CC(C)(C)C)n(O)c(=O)c1 (stereo not drawn) [Octo, octopirox] | 3.18 | – | – | – | – | 1.85 | – | 0.36
Cc1cc(C2CCCCC2)n(O)c(=O)c1 [CPO, ciclopirox olamine] | – | – | – | 0.43 | 2.05 | – | – | –

Source: patent publication EP0771187B1, “NOVEL COMBINATION PRODUCT COMPRISING AN ANTIFUNGAL AGENT AND CROTAMITON AS AN ANTIFUNGAL ACTIVITY ENHANCER AND DERMATOLOGICAL OR COSMETIC COMPOSITIONS COMPRISING SAME” (Pierre Fabre Dermo-Cosmetique, priority 1994, dated 1996)
